Source: article PMC6882468 (Journal of Enzyme Inhibition and Medicinal Chemistry, 2019)

How the values were obtained:
[1] = system: DNFB-induced mouse model of allergic contact dermatitis; experiment: DNFB-induced mouse model of allergic contact dermatitis (ear swelling); assay type: in vivo, Male ICR mice; conditions: for Swelling degree / Inhibition (%) of ear swelling: mice; for Swelling degree: Mean ± SD, n = 6; for Inhibition (%) of ear swelling: vs model group
Description: Male ICR mice (20 ± 2 g) were obtained from the Experimental Animal Centre of Anhui Medical University (Hefei, China). The mice reared in a pathogen-free setting (23 ± 2 °C, 55 ± 5% humidity) with free access to water and pelleted food throughout the experimental cycle. All experimental procedures performed in accordance with guide for the Care and Use of Laboratory Animals (National Research Council, 1996) and were approved by the Experimental Animal Ethics Committee of Anhui University of Chinese Medicine (Hefei, China). After 7 days acclimatisation, the mice were randomly divided into control group, ACD model group, dexamethasone positive control group and 20 compound groups, six in each group. The control group and the model group were given the same dose of the vehicle, the positive control group was given dexamethasone 0.5 mg/kg, and the test compound groups were given compound 5 mg/kg, all of which were given by intragastric administration and were administered once a day for 6 days. Except for the control group, the 50 µL of 1% DNFB (in acetone/olive oil 4:1) was administered to the stripped epidermis, and repeated the next day. After 6 days of drug treatment, 10 µL of 1% DNFB acetone olive oil solution was applied on both sides of the right ear to stimulate inflammation, and equivalent acetone olive oil solution was applied on the left ear for comparison. […] Calculation was carried out according to the following equations. Swelling degree (mg) = MR – ML Inhibitory rate of ear swelling (%)=((MR – ML) model – (MR – ML) treated)/(MR – ML) model ×100% MR=Average weight of the right ear slices;ML= Average weight of the left ear slices […] Dexamethasone (DEX) at a p.o. dose of 0.5 mg/kg was employed as the positive control. After the mice were sacrificed, the swelling degree and inhibition rate were calculated by weighing the same part of both ears.

[2] = system: NF-κB activation in RAW264.7 cells; experiment: Western blot of LPS-induced NF-κB activation; assay type: cell-based, Murine; conditions: RAW264.7, 2-h pre-treatment before LPS stimulation
Description: The cell in 96-well plates were treated as described above and then stimulated with LPS (200 ng/mL) for 24 h. The cells were harvested and lysed in an extraction lysis buffer (Beyotime Biotechnology, Shanghai, China) containing protease inhibitors. The protein concentration was determined using a BCA protein assay kit (Thermo Scientific, 23227). The whole cell lysates were separated by 10% sodium dodecyl sulphate-polyacrylamide gel electrophoresis and transferred to a nitrocellulose membrane. Each membrane was incubated with Tris-buffered saline (pH 7.6, containing 0.05% Tween-20 and 5% non-fat milk). The nitrocellulose membrane was incubated with the primary antibody against p-JNK1/2, JNK1/2, p-p38, p38, p-ERK1/2, ERK1/2, IκBa, NF-κB p65, COX-2, iNOS or β-Actin (Abcam, Cambridge, UK). Immunoreactive bands were detected by incubating with horseradish peroxidase-conjugated secondary antibodies, and visualised using enhanced chemiluminescence reagents (Bio-Rad, Hercules, CA).
Figure 5. Compound 6n inhibited LPS-induced NF-κB activation in RAW264.7 cells. […] The levels of NF-κB p65, IκB, and their phosphorylated forms were analysed using western blot.

[3] = 5 mg/kg intragastric once a day for 6 days, ear slices weighed 24 h after DNFB challenge
[4] = 5 mg/kg intragastric once a day for 6 days
[5] = positive control 0.5 mg/kg intragastric once a day for 6 days

Structure (SMILES)	Swelling degree [1, 3]	Inhibition (%) of ear swelling [1, 4]	further results
COc1ccc(CN2CCN(C(=O)c3ccccc3C(C)=O)CC2)c(OC)c1 [Compound 6m, 1–(2-(4–(2,4-Dimethoxybenzyl)piperazine-1-carbonyl)phenyl)ethan-1-one]	11.6 ± 2.4 mg	29.3%	
CC(=O)c1ccccc1C(=O)N1CCN(Cc2ccc(C(F)(F)F)cc2)CC1 [Compound 6d, 1–(2-(4–(4-(Trifluoromethyl)benzyl)piperazine-1-carbonyl)phenyl)ethan-1-one]	12.5 ± 3.4 mg	23.8%	
CC(=O)c1ccccc1C(=O)N1CCN(Cc2ccncc2)CC1 [Compound 6s, 1–(2-(4-(Pyridin-4-ylmethyl)piperazine-1-carbonyl)phenyl)ethan-1-one]	12.9 ± 3.4 mg	21.3%	
COc1cccc(CN2CCN(C(=O)c3ccccc3C(C)=O)CC2)c1 [Compound 6o, 1–(2-(4–(3-Methoxybenzyl)piperazine-1-carbonyl)phenyl)ethan-1-one]	13.0 ± 4.4 mg	20.7%	
CC(=O)c1ccccc1C(=O)N1CCN(Cc2ccc3c(c2)OCO3)CC1 [Compound 6p, 1–(2-(4-(Benzo[d][1,3]dioxol-5-ylmethyl)piperazine-1-carbonyl)phenyl)ethan-1-one]	11.0 ± 3.2 mg	32.9%	in vivo inhibitory activity, in words ([1]; p.o. 5 mg/kg, p < 0.01): significant inhibitory activity
CC(=O)c1ccccc1C(=O)N1CCN(Cc2cccc(Cl)c2)CC1 [Compound 6i, 1–(2-(4–(3-Chlorobenzyl)piperazine-1-carbonyl)phenyl)ethan-1-one]	12.0 ± 3.0 mg	26.8%	
CC(=O)c1ccccc1C(=O)N1CCN(Cc2nc(C)c(C)nc2C)CC1 [Compound 6r, 1–(2-(4-((3,5,6-Trimethylpyrazin-2-yl)methyl)piperazine-1-carbonyl)phenyl)ethan-1-one]	10.8 ± 3.5 mg	34.1%	
CC(=O)c1ccccc1C(=O)N1CCN(Cc2ccc([N+](=O)[O-])cc2)CC1 [Compound 6e, 1–(2-(4–(4-Nitrobenzyl)piperazine-1-carbonyl)phenyl)ethan-1-one]	13.0 ± 3.3 mg	20.7%	
C[C@@H]1C[C@H]2[C@@H]3CCC4=CC(=O)C=C[C@]4(C)[C@@]3(F)[C@@H](O)C[C@]2(C)[C@@]1(O)C(=O)CO [DEX, Dexamethasone, reference compound]			Inhibition (%) of ear swelling [1, 5]: 51.8%; Swelling degree [1, 5]: 7.9 ± 3.0 mg
Cc1ccc(S(=O)(=O)/C=C/C#N)cc1 [Bay 11e7082, reference compound]			LPS-induced IκB phosphorylation [2]: markedly decreased; accumulation of NF-κB p65 subunit in the nucleus [2]: lowered; cytosolic IκB [2]: increased
CC(=O)c1ccccc1C(=O)N1CCN(Cc2ccc(C#N)cc2)CC1 [Compound 6c, 4-((4–(2-Acetylbenzoyl)piperazin-1-yl)methyl)benzonitrile]	11.3 ± 4.0 mg	31.1%	
CC(=O)c1ccccc1C(=O)N1CCN(Cc2ccc(Cl)cc2Cl)CC1 [Compound 6g, 1–(2-(4–(2,4-Dichlorobenzyl)piperazine-1-carbonyl)phenyl)ethan-1-one]	12.9 ± 2.6 mg	21.3%	
CC(=O)c1ccccc1C(=O)N1CCN(Cc2ccccc2Cl)CC1 [Compound 6h, 1–(2-(4–(2-Chlorobenzyl)piperazine-1-carbonyl)phenyl)ethan-1-one]	12.8 ± 4.1 mg	21.9%	
COc1ccc(CN2CCN(C(=O)c3ccccc3C(C)=O)CC2)cc1 [Compound 6b, 1–(2-(4–(4-Methoxybenzyl)piperazine-1-carbonyl)phenyl)ethan-1-one]	12.0 ± 3.4 mg	26.8%	
CC(=O)c1ccccc1C(=O)N1CCN(Cc2ccc3c(c2)OCCO3)CC1 [Compound 6q, 1–(2-(4-((2,3-Dihydrobenzo[b][1,4]dioxin-6-yl)methyl)piperazine-1-carbonyl)phenyl)ethan-1-one]	13.3 ± 2.6 mg	18.9%	
CC(=O)c1ccccc1C(=O)N1CCN(Cc2ccc(Cl)cc2)CC1 [Compound 6a, 1–(2-(4–(4-Chlorobenzyl)piperazine-1-carbonyl)phenyl)ethan-1-one]	11.9 ± 3.7 mg	27.4%	
CC(=O)c1ccccc1C(=O)N1CCN(Cc2ccc(C)cc2)CC1 [Compound 6l, 1–(2-(4–(4-Methylbenzyl)piperazine-1-carbonyl)phenyl)ethan-1-one]	11.4 ± 3.2 mg	30.5%	
CC(=O)c1ccccc1C(=O)N1CCN(Cc2ccccc2)CC1 [Compound 6k, 1–(2-(4-Benzylpiperazine-1-carbonyl)phenyl)ethan-1-one]	13.0 ± 3.5 mg	20.7%	
